Test results published in ChEMBL document CHEMBL5523758, “Discovery of 2-Methyl-5-(1H-pyrazol-4-yl)pyridines and Related Heterocycles as Promising M4 mAChR Positive Allosteric Modulators for the Treatment of Neurocognitive Disorders” (J Med Chem, 2024).

What was measured:
[1] = target: T1, Muscarinic acetylcholine receptor M4 (Homo sapiens) (UniProt P08173); conditions: Flp-In-CHO, filed as positive allosteric modulator
T1 sequence (whole entry): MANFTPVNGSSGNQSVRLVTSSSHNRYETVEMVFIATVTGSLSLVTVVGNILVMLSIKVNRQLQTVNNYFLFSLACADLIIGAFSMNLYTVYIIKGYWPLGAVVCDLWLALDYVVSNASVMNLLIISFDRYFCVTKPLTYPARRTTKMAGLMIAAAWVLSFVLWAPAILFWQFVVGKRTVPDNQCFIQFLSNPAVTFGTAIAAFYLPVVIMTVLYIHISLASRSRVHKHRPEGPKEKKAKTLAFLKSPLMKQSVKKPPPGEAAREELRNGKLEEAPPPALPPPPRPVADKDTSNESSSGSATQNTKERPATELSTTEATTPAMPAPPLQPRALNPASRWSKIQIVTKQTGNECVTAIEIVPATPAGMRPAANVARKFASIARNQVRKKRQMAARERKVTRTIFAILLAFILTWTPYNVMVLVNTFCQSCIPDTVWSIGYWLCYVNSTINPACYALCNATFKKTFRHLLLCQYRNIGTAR
Description: Positive allosteric modulation at human M4 mAChR stably expressed in Flp-In-CHO cells co-transfected with CAMYEL biosensor assessed as ACh-induced CAMYEL activation by measuring log of functional co-operativity by BRET assay

[2] = target: T1, Muscarinic acetylcholine receptor M4 (Homo sapiens); conditions: Flp-In-CHO, filed as positive allosteric modulator, time 8.0 min
[3] = target: T1, Muscarinic acetylcholine receptor M4 (Homo sapiens); conditions: Flp-In-CHO
Description: Positive allosteric modulation at human M4 mAChR stably expressed in Flp-In-CHO cells co-transfected with CAMYEL biosensor assessed as ACh-induced CAMYEL activation by measuring log of operational efficacy by BRET assay

[4] = target: T1, Muscarinic acetylcholine receptor M4 (Homo sapiens); conditions: Flp-In-CHO, filed as positive allosteric modulator, time 8.0 min; remark: listed apart in the source
[5] = target: T1, Muscarinic acetylcholine receptor M4 (Homo sapiens); conditions: Flp-In-CHO, filed as positive allosteric modulator, time 8.0 min; remark: listed apart in the source
[6] = target: T1, Muscarinic acetylcholine receptor M4 (Homo sapiens); conditions: Flp-In-CHO, dose 10.0 µM, time 8.0 min
[7] = target: T1, Muscarinic acetylcholine receptor M4 (Homo sapiens); conditions: Flp-In-CHO, time 5.0 min
[8] = target: T1, Muscarinic acetylcholine receptor M4 (Homo sapiens); conditions: Flp-In-CHO, filed as positive allosteric modulator, time 5.0 min
[9] = filed as positive allosteric modulator

Structure (SMILES) | log(activity) [1] | pKb [2] | log(activity) [3, 9] | log(activity) [4] | log(activity) [5] | deltapEC50 [6] | log(activity) [7, 9] | log(activity) [8] | log(activity) [3] | log(activity) [7]
Cc1ccc(-c2cnn(CCCCC#N)c2)c(-c2ccc3c(c2)C(=O)N(C)C3)n1 | 1.03 | 4.55 | 0.28 | 1.93 | 1.16 | – | – | – | – | –
Cc1ccc(-c2cnn(CCCCC(=O)O)c2)c(-c2ccc3c(c2)C(=O)N(C)C3)n1 | – | – | – | – | – | > 0.4 | – | – | – | –
Cc1cnc(-c2ccc3c(c2)C(=O)N(C)C3)c(-c2cnn(CC3CCCC3)c2)c1 | 2.12 | 4.73 | 1.17 | 2.53 | 2.17 | – | 0.08 | 2.3 | – | –
Cc1ccc(-c2cnn(CCCC(=O)O)c2)c(-c2ccc3c(c2)C(=O)N(C)C3)n1 | – | – | – | – | – | > 0.4 | – | – | – | –
COC(=O)CCn1cc(-c2ccc(C)nc2-c2ccc3c(c2)C(=O)N(C)C3)cn1 | 1.08 | 4.57 | – | 1.46 | 0.73 | > 0.4 | – | – | -0.28 | –
COC(=O)CCCn1cc(-c2ccc(C)nc2-c2ccc3c(c2)C(=O)N(C)C3)cn1 | 1.04 | 4.73 | 0.18 | 1.94 | 1.05 | – | – | – | – | –
Cc1ccc(-c2cnn(CC3CCCC3)c2)c(-c2ccc3c(c2)C(=O)NC3)n1 | 1.07 | 5.65 | 0.5 | 2.15 | 1.72 | – | – | – | – | –
Cc1ccc(-c2cnn(CC3CCCC3)c2)c(-c2ccc3c(c2)C(=O)N(CC#N)C3)n1 | 1 | 5.26 | 0.48 | 1.94 | 1.55 | – | – | – | – | –
CN1Cc2ccc(-c3nc4ccccc4cc3-c3cnn(CC4CCCC4)c3)cc2C1=O | 1.99 | 4.53 | 0.84 | 2.01 | 1.56 | > 0.4 | – | 1.92 | – | -0.28
Cc1ccc(-c2cnn(CC3CCCC3)c2)c(-c2ccc3c(c2)C(=O)N(C)C3)n1 | 0.53 | 5.86 | 0.25 | 1.74 | 1.58 | – | 0.02 | 1.89 | – | –
Cc1ccc(-c2cnn(CCC(N)=O)c2)c(-c2ccc3c(c2)C(=O)N(C)C3)n1 | – | – | – | – | – | > 0.4 | – | – | – | –
Cc1ccc(-c2cnn(CCC#N)c2)c(-c2ccc3c(c2)C(=O)N(C)C3)n1 | 0.84 | 4.74 | – | 1.49 | 0.88 | > 0.4 | – | – | -0.64 | –
Cc1ccc(-c2cnn(CCCN)c2)c(-c2ccc3c(c2)C(=O)N(C)C3)n1 | 0.44 | 4.79 | – | 1.56 | 0.85 | – | – | – | -0.47 | –
COC(=O)CCCCn1cc(-c2ccc(C)nc2-c2ccc3c(c2)C(=O)N(C)C3)cn1 | – | – | – | – | – | > 0.4 | – | – | – | –
Cc1ncc(-c2cnn(CC3CCCC3)c2)c(-c2ccc3c(c2)C(=O)N(C)C3)n1 | 0.74 | 4.71 | 0.1 | 1.92 | 1.3 | – | – | – | – | –
